Converted amounts (≈) assume the structure as drawn. Where two headings read alike, the source gives them in different places.
Experiments:
[1] = test system: kanamycin-resistant bacteria; conditions: prior art statement; cited from earlier work
[2] = test system: Escherichia coli LA290 R64; assay: Minimum inhibitory concentration, serial dilution method on nutrient agar; assay type: cell-based; conditions: LA290R64, 18 h, read-out: Minimum Inhibitory Concentrations
[3] = test system: Pseudomonas aeruginosa 99; assay: as above; assay type: cell-based; conditions: 37° C., 18 hours, read-out: Minimum Inhibitory Concentrations
[4] = test system: Corynebacterium bovis 1810; assay: as above; assay type: cell-based; conditions: read-out: Minimum Inhibitory Concentrations
[5] = test system: Pseudomonas aeruginosa No. 12; assay: as above; assay type: cell-based; conditions: read-out: Minimum Inhibitory Concentrations
[6] = test system: Proteus vulgaris OX 19; assay: as above; assay type: cell-based; conditions: OX19; Proteus vulgaris OX 19; 37° C., 18 hours; read-out: Minimum Inhibitory Concentrations
[7] = test system: Staphylococcus aureus; assay: as above; assay type: cell-based; conditions: 37° C., 18 hours, read-out: Minimum Inhibitory Concentrations
[8] = test system: Bacillus subtilis PCI 219; assay: as above; assay type: cell-based; conditions: PCI219, 37° C., 18 hours, read-out: Minimum Inhibitory Concentrations
[9] = test system: Pseudomonas aeruginosa TI-13; assay: as above; assay type: cell-based; conditions: read-out: Minimum Inhibitory Concentrations
[10] = test system: Sarcina lutea PCI 1001; assay: as above; assay type: cell-based; conditions: Micrococcus luteus, read-out: Minimum Inhibitory Concentrations
[11] = test system: Salmonella typhosa T-63; assay: as above; assay type: cell-based; conditions: Salmonella enterica, 18 h, read-out: Minimum Inhibitory Concentrations
[12] = test system: Salmonella enteritidis 1891; assay: as above; assay type: cell-based; conditions: Salmonella enterica; Salmonella enteritidis 1891; 37° C., 18 hours; read-out: Minimum Inhibitory Concentrations
[13] = test system: Escherichia coli K-12 R5; assay: as above; assay type: cell-based; conditions: K12R5, 18 h, read-out: Minimum Inhibitory Concentrations
[14] = test system: Klebsiella pneumoniae PCT 602; assay: as above; assay type: cell-based; conditions: PCT602; Klebsiella pneumoniae PCT 602; 37° C., 18 hours; read-out: Minimum Inhibitory Concentrations
[15] = test system: Bacillus subtilis NRRL B-558; assay: as above; assay type: cell-based; conditions: NRRLB558, 37° C., 18 hours, read-out: Minimum Inhibitory Concentrations
[16] = test system: Staphylococcus aureus FDA 209P; assay: as above; assay type: cell-based; conditions: FDA209P, 37° C., 18 hours, read-out: Minimum Inhibitory Concentrations
[17] = test system: Staphylococcus aureus Terajima; assay: as above; assay type: cell-based; conditions: 37° C., 18 hours, read-out: Minimum Inhibitory Concentrations
[18] = test system: Escherichia coli W677; assay: as above; assay type: cell-based; conditions: Escherichia coli W677; 37° C., 18 hours; read-out: Minimum Inhibitory Concentrations
[19] = test system: Pseudomonas aeruginosa GN315; assay: as above; assay type: cell-based; conditions: read-out: Minimum Inhibitory Concentrations
[20] = test system: Shigella dysenteriae JS 11910; assay: as above; assay type: cell-based; conditions: JS11910, 18 h, read-out: Minimum Inhibitory Concentrations
[21] = test system: Escherichia coli JR66/W677; assay: as above; assay type: cell-based; conditions: read-out: Minimum Inhibitory Concentrations
[22] = test system: Escherichia coli K-12; assay: as above; assay type: cell-based; conditions: K12; Escherichia coli K-12; 37° C., 18 hours; read-out: Minimum Inhibitory Concentrations
[23] = test system: Escherichia coli K-12 ML 1630; assay: as above; assay type: cell-based; conditions: K12ML1630, 37° C., 18 hours, read-out: Minimum Inhibitory Concentrations
Description: (§1) The minimum inhibitory concentrations (mcg./ml.) of 1N-(DL-isoseryl)-6'N-methyl-3',4'-dideoxykanamycin B (abbreviated as DL-IS-MDKB); 1N-(L-isoseryl)-6'N-methyl-3',4'-dideoxykanamycin B (abbreviated as L-IS-MDKB); 1N-(L-4-amino-[…])-6'N-methyl-3',4'-dideoxykanamycin B (abbreviated as AHB-MDKB); and 1N-(L-5-amino-2-hydroxyvaleryl)-6'N-methyl-3',4'-dideoxykanamycin B (abbreviated as AHV-MDBK) against various organisms were determined according to serial dilution method using nutrient agar medium at 37° C., the readings being made after 18 hours incubation. For the comparison purpose, the minimum inhibitory concentrations (mcg./ml.) of 1 N-(L-4-amino-2-hydroxybutyryl)-kanamycin A (abbreviated as AHB-KMA) and 1N-([…])-kanamycin B (abbreviated as AHB-KMB) which are known from U.S. Pat. No. 3,781,268 were also determined by the same manner as stated above.

[24] = test system: Shigella flexneri 4b JS 11811; assay: as above; assay type: cell-based; conditions: 4BJS11811, 37° C., 18 hours, read-out: Minimum Inhibitory Concentrations
Description: as §1

[25] = test system: Pseudomonas aeruginosa A3; assay: as above; assay type: cell-based; conditions: 37° C., 18 hours, read-out: Minimum Inhibitory Concentrations
Description: as §1

[26] = test system: Klebsiella pneumoniae 22 No. 3038; assay: as above; assay type: cell-based; conditions: 37° C., 18 hours, read-out: Minimum Inhibitory Concentrations
Description: as §1

[27] = test system: Shigella sonnei JS 11746; assay: as above; assay type: cell-based; conditions: JS11746, 37° C., 18 hours, read-out: Minimum Inhibitory Concentrations
Description: as §1

[28] = test system: Mycobacterium smegmatis ATCC 607; assay: as above; assay type: cell-based; conditions: Mycolicibacterium smegmatis, ATCC607, 37° C., 18 hours, read-out: Minimum Inhibitory Concentrations
[29] = test system: Bacillus anthracis; assay: microbe, parasite or virus in culture; assay type: cell-based; conditions: 18 h, read-out: Minimum Inhibitory Concentrations
[30] = test system: Escherichia coli NIHJ; assay: Minimum inhibitory concentration, serial dilution method on nutrient agar; assay type: cell-based; conditions: Escherichia coli NIHJ; 37° C., 18 hours; read-out: Minimum Inhibitory Concentrations
[31] = test system: Escherichia coli K-12 ML 1410; assay: as above; assay type: cell-based; conditions: K12ML1410; Escherichia coli K-12 ML 1410; 37° C., 18 hours; read-out: Minimum Inhibitory Concentrations
[32] = test system: Escherichia coli LA290 R55; assay: as above; assay type: cell-based; conditions: LA290R55, 18 h, read-out: Minimum Inhibitory Concentrations
[33] = test system: Bacillus cereus ATCC 10702; assay: as above; assay type: cell-based; conditions: read-out: Minimum Inhibitory Concentrations
[34] = test system: Escherichia coli K-12 ML 1629; assay: as above; assay type: cell-based; conditions: K12ML1629; Escherichia coli K-12 ML 1629; 37° C., 18 hours; read-out: Minimum Inhibitory Concentrations
[35] = test system: Escherichia coli LA290 R56; assay: as above; assay type: cell-based; conditions: LA290R56, 18 h, read-out: Minimum Inhibitory Concentrations
[36] = test system: Escherichia coli K-12 ML 1410 R81; assay: as above; assay type: cell-based; conditions: 18 h, read-out: Minimum Inhibitory Concentrations

Row | Structure (SMILES) | MIC [2] [µg/mL] | MIC [3] [µg/mL] | MIC [6] [µg/mL] | MIC [7] [µg/mL] | MIC [8] [µg/mL] | MIC [11] [µg/mL] | MIC [12] [µg/mL] | MIC [13] [µg/mL] | MIC [14] [µg/mL] | MIC [15] [µg/mL] | MIC [16] [µg/mL] | MIC [17] [µg/mL] | MIC [18] [µg/mL] | MIC [20] [µg/mL] | MIC [22] [µg/mL] | MIC [23] [µg/mL] | MIC [24] [µg/mL] | MIC [25] [µg/mL] | MIC [26] [µg/mL] | MIC [27] [µg/mL] | further results
1 | NCC[C@H](O)C(=O)N[C@@H]1C[C@H](N)[C@@H](O[C@H]2O[C@H](CN)[C@@H](O)[C@H](O)[C@H]2N)[C@H](O)[C@H]1O[C@H]1O[C@H](CO)[C@@H](O)[C@H](N)[C@H]1O [AHB-KMB, 1N-(L-4-amino-2-hydroxybutyryl)kanamycin B] |  |  |  |  |  |  |  |  |  |  |  |  |  |  |  |  |  |  |  |  | activity against kanamycin-resistant bacteria [1]: active against a large number of kanamycin-resistant bacteria
2 | CNC[C@@H]1CC[C@@H](N)[C@@H](O[C@H]2[C@H](O)[C@@H](O[C@H]3O[C@H](CO)[C@@H](O)[C@H](N)[C@H]3O)[C@H](NC(=O)[C@@H](O)CCN)C[C@@H]2N)O1 [AHB-MDKB, 1N-(L-4-amino-2-hydroxybutyryl)-6'N-methyl-3',4'-dideoxykanamycin B] | 0.78 (≈ 1.38 µM) | 25 (≈ 44.1 µM) | 1.56 (≈ 2.75 µM) | < 0.2 | < 0.2 | 3.13 (≈ 5.52 µM) | 1.56 (≈ 2.75 µM) | 1.56 (≈ 2.75 µM) | 0.78 (≈ 1.38 µM) | < 0.2 | 0.78 (≈ 1.38 µM) | < 0.2 | 0.78 (≈ 1.38 µM) | 3.13 (≈ 5.52 µM) | 0.78 (≈ 1.38 µM) | 0.78 (≈ 1.38 µM) | 3.13 (≈ 5.52 µM) | 3.13 (≈ 5.52 µM) | 3.13 (≈ 5.52 µM) | 6.25 (≈ 11 µM) | MIC ([4]; Corynebacterium bovis, 1810, 18 h): 3.13 µg/mL (≈ 5.52 µM); MIC ([5]; Pseudomonas aeruginosa, NO.12, 18 h): 3.13 µg/mL (≈ 5.52 µM); MIC ([9]; Pseudomonas aeruginosa, TI13, 18 h): 6.25 µg/mL (≈ 11 µM); MIC ([10]; PCI1001, 18 h): 3.13 µg/mL (≈ 5.52 µM); MIC ([19]; Pseudomonas aeruginosa, GN315, 18 h): 6.25 µg/mL (≈ 11 µM); MIC ([21]; Escherichia coli, JR66/W677, 18 h): 3.13 µg/mL (≈ 5.52 µM); MIC [28]: 0.2 µg/mL (≈ 0.353 µM); MIC [29]: < 0.2 µg/mL; MIC [30]: 1.56 µg/mL (≈ 2.75 µM); MIC [31]: 1.56 µg/mL (≈ 2.75 µM); MIC [32]: 0.78 µg/mL (≈ 1.38 µM); MIC ([33]; Bacillus cereus, ATCC10702, 18 h): 3.13 µg/mL (≈ 5.52 µM); MIC [34]: 1.56 µg/mL (≈ 2.75 µM); MIC [35]: 0.78 µg/mL (≈ 1.38 µM)
3 | CNC[C@@H]1CC[C@@H](N)[C@@H](O[C@H]2[C@H](O)[C@@H](O[C@H]3O[C@H](CO)[C@@H](O)[C@H](N)[C@H]3O)[C@H](NC(=O)[C@@H](O)CCCN)C[C@@H]2N)O1 [AHV-MDKB, 1N-(L-5-amino-2-hydroxyvaleryl)-6'N-methyl-3',4'-dideoxykanamycin B] | 0.39 (≈ 0.672 µM) | 25 (≈ 43.1 µM) | 0.78 (≈ 1.34 µM) | < 0.2 | < 0.2 | 0.78 (≈ 1.34 µM) | 0.78 (≈ 1.34 µM) | 1.56 (≈ 2.69 µM) | 0.78 (≈ 1.34 µM) | < 0.2 | 0.39 (≈ 0.672 µM) | < 0.2 | 0.78 (≈ 1.34 µM) | 3.13 (≈ 5.39 µM) | 0.78 (≈ 1.34 µM) | 1.56 (≈ 2.69 µM) | 3.13 (≈ 5.39 µM) | 3.13 (≈ 5.39 µM) | 3.13 (≈ 5.39 µM) | 3.13 (≈ 5.39 µM) | MIC ([4]; Corynebacterium bovis 1810, 37° C., 18 hours): 6.25 µg/mL (≈ 10.8 µM); MIC ([5]; Pseudomonas aeruginosa No. 12, 37° C., 18 hours): 25 µg/mL (≈ 43.1 µM); MIC ([9]; TI13, Pseudomonas aeruginosa TI-13, 37° C., 18 hours): 6.25 µg/mL (≈ 10.8 µM); MIC ([10]; PCI1001, Sarcina lutea PCI 1001, 37° C., 18 hours): 12.5 µg/mL (≈ 21.5 µM); MIC ([19]; Pseudomonas aeruginosa GN315, 37° C., 18 hours): 12.5 µg/mL (≈ 21.5 µM); MIC ([21]; Escherichia coli JR66/W677, 37° C., 18 hours): 1.56 µg/mL (≈ 2.69 µM); MIC [28]: 0.78 µg/mL (≈ 1.34 µM); MIC [29]: < 0.2 µg/mL; MIC [30]: 0.78 µg/mL (≈ 1.34 µM); MIC [36]: 1.56 µg/mL (≈ 2.69 µM); MIC [31]: 1.56 µg/mL (≈ 2.69 µM); MIC [32]: 0.78 µg/mL (≈ 1.34 µM); MIC ([33]; ATCC10702, Bacillus cereus ATCC 10702, 37° C., 18 hours): 1.56 µg/mL (≈ 2.69 µM); MIC [34]: 0.78 µg/mL (≈ 1.34 µM); MIC [35]: 0.39 µg/mL (≈ 0.672 µM)

Reference: patent US4147861A, “1N-(α-Hydroxy-ω-aminoalkanoyl)- 6'N-methyl-3',4'-dideoxykanamycin B and the production thereof” (Zaidan Hojin Biseibutsu Kagaku Kenkyu Kai, priority 1977, dated 1979)
